Reference: PubChem BioAssay (NCI)
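Test compounds were applied to cells in 96-well plates for 48 hours at 5 doses. The concentration for 50% growth inhibition is given as GI50. The concentration for full growth arrest is given as TGI.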

Assays:
Assay in all cases: DTP human tumour cell line panel, 48 h
[1] = test system: SF-539 CNS
[2] = test system: HCT-15 colon
[3] = test system: BT-549 breast
[4] = test system: PC-3 prostate
[5] = test system: OVCAR-5 ovarian
[6] = test system: MALME-3M melanoma
[7] = test system: KM12 colon
[8] = test system: M14 melanoma
[9] = test system: OVCAR-8 ovarian
[10] = test system: NCI/ADR-RES ovarian
[11] = test system: A498 renal
[12] = test system: MDA-MB-435
[13] = test system: OVCAR-3 ovarian
[14] = test system: SK-MEL-28 melanoma
[15] = test system: T-47D breast
[16] = test system: LOX IMVI melanoma
[17] = test system: UACC-257 melanoma
[18] = test system: NCI-H23 lung
[19] = test system: CCRF-CEM leukemia
[20] = test system: A549 NSCLC
[21] = test system: HOP-92 NSCLC
[22] = test system: SNB-75 CNS
[23] = test system: 786-0 renal
[24] = test system: SN12C renal
[25] = test system: SW-620 colon
[26] = test system: NCI-H522 lung
[27] = test system: K-562 leukemia
[28] = test system: U251 CNS
[29] = test system: SK-MEL-2 melanoma
[30] = test system: CAKI-1 renal
[31] = test system: IGROV1 ovarian
[32] = test system: EKVX NSCLC
[33] = test system: SR leukemia
[34] = test system: NCI-H226 lung
[35] = test system: HT29 colon
[36] = test system: ACHN renal
[37] = test system: SK-MEL-5 melanoma
[38] = test system: HS 578T breast
[39] = test system: UO-31 renal
[40] = test system: TK-10 renal
[41] = test system: DU-145 prostate
[42] = test system: SF-295 CNS
[43] = test system: HL-60(TB) leukemia
[44] = test system: UACC-62 melanoma
[45] = test system: HOP-62 NSCLC
[46] = test system: HCT-116 colon
[47] = test system: OVCAR-4 ovarian
[48] = test system: RXF 393 renal
[49] = test system: HCC-2998 colon
[50] = test system: RPMI-8226 leukemia
[51] = test system: SK-OV-3 ovarian
[52] = test system: COLO 205 colon
[53] = test system: MDA-MB-231 breast
[54] = test system: SF-268 CNS
[55] = test system: SNB-19 CNS
[56] = test system: MCF7 breast

Structure (SMILES): CC(=O)c1ccc(Nc2cc(-c3ccccc3)nc3c(O)cccc23)cc1
- GI50 [1]: 21.5 µM
- TGI [1]: 68.4 µM
- GI50 [2]: 8.31 µM
- TGI [2]: > 100 µM
- GI50 [3]: 28.7 µM
- TGI [3]: > 100 µM
- GI50 [4]: 8.62 µM
- TGI [4]: > 100 µM
- GI50 [5]: 54.5 µM
- TGI [5]: > 100 µM
- GI50 [6]: 19.6 µM
- TGI [6]: 68.3 µM
- GI50 [7]: 5.72 µM
- TGI [7]: > 100 µM
- GI50 [8]: 4.58 µM
- TGI [8]: 33.9 µM
- GI50 [9]: 19 µM
- TGI [9]: > 100 µM
- GI50 [10]: 5.53 µM
- TGI [10]: 34.9 µM
- GI50 [11]: 25.3 µM
- TGI [11]: 71.7 µM
- GI50 [12]: 23.6 µM
- TGI [12]: 65.3 µM
- GI50 [13]: > 100 µM
- TGI [13]: > 100 µM
- GI50 [14]: 23.1 µM
- TGI [14]: 88.8 µM
- GI50 [15]: 16.6 µM
- TGI [15]: 63.7 µM
- GI50 [16]: 14.5 µM
- TGI [16]: > 100 µM
- GI50 [17]: 21 µM
- TGI [17]: 53.4 µM
- GI50 [18]: 12.5 µM
- TGI [18]: 64.7 µM
- GI50 [19]: 5.05 µM
- TGI [19]: 34.6 µM
- GI50 [20]: 30.6 µM
- TGI [20]: > 100 µM
- GI50 [21]: 13.7 µM
- TGI [21]: 50.5 µM
- GI50 [22]: 17.9 µM
- TGI [22]: 50.5 µM
- GI50 [23]: 8.8 µM
- TGI [23]: 83.4 µM
- GI50 [24]: 24.7 µM
- TGI [24]: 58.2 µM
- GI50 [25]: 7.06 µM
- TGI [25]: > 100 µM
- GI50 [26]: 2.98 µM
- TGI [26]: 9.64 µM
- GI50 [27]: 4.73 µM
- TGI [27]: > 100 µM
- GI50 [28]: 9.44 µM
- TGI [28]: > 100 µM
- GI50 [29]: 13.2 µM
- TGI [29]: 40.4 µM
- GI50 [30]: 41.3 µM
- TGI [30]: > 100 µM
- GI50 [31]: 2.57 µM
- TGI [31]: 13.4 µM
- GI50 [32]: 28.7 µM
- TGI [32]: > 100 µM
- GI50 [33]: 1.59 µM
- TGI [33]: 49.5 µM
- GI50 [34]: 28.2 µM
- TGI [34]: > 100 µM
- GI50 [35]: 20.7 µM
- TGI [35]: 43 µM
- GI50 [36]: 20.5 µM
- TGI [36]: 74.1 µM
- GI50 [37]: 13 µM
- TGI [37]: 26.7 µM
- GI50 [38]: 27 µM
- TGI [38]: > 100 µM
- GI50 [39]: 14 µM
- TGI [39]: 53.9 µM
- GI50 [40]: 18.1 µM
- TGI [40]: 84.8 µM
- GI50 [41]: 21.8 µM
- TGI [41]: > 100 µM
- GI50 [42]: 37.2 µM
- TGI [42]: > 100 µM
- GI50 [43]: 3.13 µM
- TGI [43]: 30.6 µM
- GI50 [44]: 12.7 µM
- TGI [44]: 29.6 µM
- GI50 [45]: 10.6 µM
- TGI [45]: 36 µM
- GI50 [46]: 5.79 µM
- TGI [46]: 90.2 µM
- GI50 [47]: 18.2 µM
- TGI [47]: 64.7 µM
- GI50 [48]: 17.4 µM
- TGI [48]: 60.3 µM
- GI50 [49]: 13.7 µM
- TGI [49]: 36.7 µM
- GI50 [50]: 8.8 µM
- TGI [50]: 46.8 µM
- GI50 [51]: 57.1 µM
- TGI [51]: > 100 µM
- GI50 [52]: 32.1 µM
- TGI [52]: > 100 µM
- GI50 [53]: 24 µM
- TGI [53]: 55.7 µM

Structure (SMILES): COc1cc2c(cc1OCCCCCOc1cc3c(cc1OC)C(=O)N1CCC[C@H]1C(=O)N3)N=C[C@@H]1CCCN1C2=O
- TGI [1]: 0.0562 µM
- TGI [54]: 10.4 µM
- TGI [2]: > 100 µM
- TGI [3]: 6.67 µM
- TGI [7]: 37.1 µM
- TGI [8]: 0.521 µM
- TGI [9]: 31.5 µM
- TGI [10]: 33.1 µM
- TGI [11]: 1.1 µM
- TGI [12]: 0.284 µM
- TGI [13]: 0.575 µM
- TGI [14]: 0.332 µM
- TGI [15]: > 100 µM
- TGI [16]: 0.997 µM
- TGI [17]: 0.707 µM
- TGI [18]: 1.89 µM
- TGI [20]: > 100 µM
- TGI [21]: 0.0973 µM
- TGI [22]: 0.0588 µM
- TGI [55]: > 100 µM
- TGI [23]: 4.71 µM
- TGI [26]: 0.0419 µM
- TGI [28]: 0.51 µM
- TGI [29]: 0.666 µM
- TGI [30]: 4.25 µM
- TGI [32]: 9.54 µM
- TGI [34]: 0.75 µM
- TGI [36]: 4.05 µM
- TGI [38]: 4.17 µM
- TGI [56]: 0.261 µM
- TGI [40]: 0.253 µM
- TGI [41]: > 100 µM
- TGI [42]: 5.59 µM
- TGI [43]: 1.51 µM
- TGI [44]: 0.193 µM
- TGI [45]: 26.3 µM
- TGI [46]: > 100 µM
- TGI [47]: 0.716 µM
- TGI [48]: 0.413 µM
- TGI [49]: 20.9 µM
- TGI [50]: 0.179 µM
- TGI [52]: 0.0509 µM
